# From patent US8470384B2, “Oxalamide derivative as umami flavouring agent” (Givaudan S.A., priority 2010, dated 2013)
# Legend:
# [1] = tested on: professional panel composed of 2 women and 3 men; assay: Tasting of 0.3% NaCl solutions by a professional panel (Example 2); assay type: in vivo, human
# Experimental: (§1) Two solutions were prepared:
# A—a solution of 0.3% NaCl and 0.05% MSG
# B—a solution of 0.3% NaCl and 3 ppm of N1-geranyl-N2-(2-(pyridin-2-yl)ethyl)oxalamide.
# The samples were tasted by a professional panel composed of 2 women and 3 men aged between 30 and 60. The panel agreed that both solutions tasted umami.
# [2] = tested on: professional panel composed of 2 women and 3 men; assay: Tasting of NaCl/MSG/ribonucleotide solutions with reduced MSG by a professional panel (Example 3); assay type: in vivo, human; conditions: solution B (0.5% NaCl, 0.05% MSG, 0.010% ribonucleotide mixture, 1.5 ppm compound) vs solution A (0.5% NaCl, 0.15% MSG, 0.025% ribonucleotide mixture)
# Experimental: as §1
# A—a solution of 0.5% NaCl, 0.15% MSG and 0.025% Ribonucleotide mixture
# B—a solution of 0.5% NaCl, 0.05% MSG, 0.010% Ribonucleotide mixture and 1.5 ppm of N1-geranyl-N2-(2-(pyridin-2-yl)ethyl)oxalamide.
# The samples were tasted by a professional panel composed of 2 women and 3 men aged between 30 and 60.
# [3] = General finding on umami flavour quality; conditions: very low dosages; in contrast to many other non-MSG umami flavourants
# [4] = solution B (0.3% NaCl, 3 ppm compound) vs solution A (0.3% NaCl, 0.05% MSG)
compound,measurement,setting,value
"N[C@@H](CCC(=O)O)C(=O)[O-].[Na+] [MSG, monosodium glutamate, reference compound]",umami taste,[1]; solution A: 0.3% NaCl and 0.05% MSG,tasted umami
CC(C)=CCC/C(C)=C/CNC(=O)C(=O)NCCc1ccccn1 [N1-geranyl-N2-(2-(pyridin-2-yl)ethyl)oxalamide],further taste attributes compared with solution A,[1]; [4],more succulence and sweetness and had more lingering savoury notes
same,umami strength compared with solution A,[1]; [4],slightly stronger umami
same,umami taste,[1]; solution B: 0.3% NaCl and 3 ppm of compound,tasted umami
same,umami strength compared with solution A,[2],equal umami strength
CC(C)=CCC/C(C)=C/CNC(=O)C(=O)NCCc1ccccn1 [the Umami Compound],umami flavour and its quality,[3],"clean, non-artificial taste"
